Results: PubChem BioAssay AID743395 (Broad Institute, 2014)

Test system: HepG2 viability, CellTiter-Glo ATP luminescence, 72 h
Assay: HepG2 cell cytotoxicity, dose response, cytotoxicity control, CellTiter-Glo luminescence, cherry-pick, set 2 (AID 743395)

## COc1ccccc1NC(=O)CSc1ccc(-c2ccccn2)nn1
  AC35: 20.4 µM

## C[C@H]1CN([C@@H](C)CO)C(=O)c2cccc(NC(=O)Nc3ccc(C(F)(F)F)cc3)c2O[C@H]1CN(C)C(=O)NC1CCCCC1
  AC35: 11.2 µM

## CC(C)Cc1ccc(-c2cc3nc(NCc4cccc(Cl)c4)ccn3n2)cc1
  AC35: 11.1 µM

## CCOC(=O)N1CCC(NC(=O)c2ccc3c(c2)N=C(C)c2c(C)ccc(C)c2S3)CC1
  AC35: 2.44 µM

## CCOc1ccc(-c2cc(C(=O)N3CCN(c4ccccn4)CC3)c3ccccc3n2)cc1
  AC35: 10.9 µM

## CCCCC(=NCCc1c(C)[nH]c2ccc(OC)cc12)C1=C(O)CC(c2ccccc2)CC1=O (stereo not drawn)
  AC35: 8.11 µM

## c1ccc(CCNc2nc(-c3ccccn3)nc3ccccc23)cc1
  AC35: 4.46 µM

## CC1=NN(c2ccccc2)C(=O)C1N=Nc1cccc(O)c1 (stereo not drawn)
  AC35: 19 µM

## Cc1ccc(-c2csc3ncn(CC#N)c(=O)c23)cc1C
  AC35: 17.9 µM

## O=C1CC(c2ccccc2)CC2=C1C=Nc1ccccc1N2 (stereo not drawn)
  AC35: 18.3 µM

## CCc1c(C)nc2ncnn2c1NCCc1ccc(OC)cc1
  AC35: 11.5 µM

## CCc1ccc(OCc2n[nH]c(=S)n2C(C)CCCC(C)C)cc1 (stereo not drawn)
  AC35: 13.9 µM

## COc1ccccc1NC1=C(NC(C)=O)C(=O)c2ccccc2C1=O
  AC35: 12.2 µM

## O=C1NC(=O)C(=Cc2c(Cl)cccc2Cl)C(=O)N1
  AC35: 22.2 µM

## COc1cccc(S(=O)(=O)N2C[C@@H]3N[C@H](C2)C3c2ccc(-c3ccccc3F)cc2)c1 (stereo partly drawn)
  AC35: 11.3 µM

## CCC1=Nc2cc(C(=O)NCC3CCCO3)ccc2Sc2ccc(Cl)cc21 (stereo not drawn)
  AC35: 10.6 µM

## CC(C)(C)c1cc(C(=O)NN)n(Cc2ccc(Cl)cc2Cl)n1
  AC35: 18.7 µM

## COc1ccc2c3c([nH]c2c1)[C@H](CO)N(S(C)(=O)=O)CC31CCN(Cc2cccc(F)c2)CC1
  AC35: 5.92 µM

## c1coc(-c2nc3ccccc3s2)c1
  AC35: 7.04 µM

## Cc1nn2cc(-c3cccc(Cl)c3)cnc2c1Br
  AC35: 11.1 µM

## CCN(CC)c1ccc(/C=N/NC(=O)c2ccco2)c(O)c1
  AC35: 1.13 µM

## COc1cccc(Sc2ccccc2/C=N/NC(N)=O)c1
  AC35: 9.98 µM

## Cc1cccc(NC(=S)N/N=C/c2cccc(O)c2)c1C
  AC35: 12.2 µM

## COc1ccc2noc3c2c1C(=O)c1ccccc1-3
  AC35: 15.4 µM

## Cc1ccc2nc(-c3ccc4c(c3)OCCO4)cn2c1
  AC35: 8.36 µM

## Cc1ccc(C)c(CSc2nc3[nH]ncc3c(=O)[nH]2)c1
  AC35: 5.46 µM

## C[C@@H]1CN([C@@H](C)CO)C(=O)Cc2cc(N(C)C)ccc2O[C@@H]1CN(C)Cc1ccc(C(=O)Nc2ccccc2N)cc1
  AC35: 11.5 µM

## C[C@@H]1CCCCO[C@H](CN(C)Cc2ccc(Cl)c(Cl)c2)[C@@H](C)CN([C@@H](C)CO)C(=O)c2cc(NS(=O)(=O)c3ccc(Cl)cc3)ccc2O1
  AC35: 10.6 µM

## CCc1nc(N)nc(N)c1-c1ccc(Cl)c([N+](=O)[O-])c1
  AC35: 0.276 µM

## O=c1[nH]c(/C=C/c2ccccc2F)nc2ccccc12
  AC35: 9.06 µM

## O=C(OCc1ccc(Br)cc1)c1cc([N+](=O)[O-])ccc1N1CCOCC1
  AC35: 10.8 µM

## COc1ccc(S(=O)(=O)Nc2cccc3ccc(O)cc23)cc1
  AC35: 13.8 µM

## O=C(CCCl)Nc1nc2c(s1)CCc1ccccc1-2
  AC35: 20.6 µM

## Cc1cc(NCc2ccccn2)n2nc(C)c(-c3ccccc3)c2n1
  AC35: 10 µM

## COc1cc2c(cc1OC)C(C)N(C(=O)Nc1cc(C)cc(C)c1)CC2 (stereo not drawn)
  AC35: 7.81 µM

## Oc1ccc2ccccc2c1C=NNc1ccccn1
  AC35: 7.59 µM

## COc1ccc(C(=O)NCCN(C)C)c2nc3ccccc3cc12
  AC35: 2.81 µM

## C=C1C(=O)O[C@@H]2[C@H]1[C@@H](OC(=O)/C(C)=C/C)C/C(C)=C\C(=O)/C=C(\C)[C@@H]2O
  AC35: 8.97 µM

## C=C1C(=O)[C@]23C[C@H]1CC[C@H]2[C@]1(C)[C@@H](OC(C)=O)CC[C@@](C)(C(=O)O)[C@H]1C[C@@H]3O
  AC35: 11.3 µM

## Cc1cc(NCc2ccccn2)n2ncc(-c3ccccc3)c2n1
  AC35: 7.75 µM

## CN(C)c1ccc(-[n+]2c(-c3ccccc3)cc(-c3ccccc3)cc2-c2ccccc2)cc1
  AC35: 3.01 µM

## c1ccc2c(NCCCN3CCOCC3)c3ccccc3nc2c1
  AC35: 2.78 µM

## N#CC(C#N)=C1C=C2C=C(N3CCCCCC3)CCC2CC1 (stereo not drawn)
  AC35: 18 µM

## O=C(NCCN1C(=O)S/C(=C\c2ccc(OC(F)F)cc2)C1=O)c1cnccn1
  AC35: 10.5 µM

## COc1cc2c(c(Br)c1N)-c1cc(Br)c(N)cc1C2=O
  AC35: 0.431 µM

## COc1ccc2[nH]c(C(=O)N/N=C/c3ccc(O)cc3O)cc2c1
  AC35: 3.37 µM

## Cc1noc(C)c1COc1ccc(C(=O)NNC(=O)c2ccccc2)cc1
  AC35: 12.2 µM

## COc1ccc(OC)c(C(=O)Cn2nnc(-c3ccc(N4CCOCC4)cc3)n2)c1
  AC35: 16.6 µM

## CCCC(=O)NC(c1ccc(Cl)cc1)c1ccc2cccnc2c1O (stereo not drawn)
  AC35: 1.77 µM

## Cn1cc(C(=O)N/N=C/c2ccc3c(c2)OCO3)c2ccccc21
  AC35: 11.2 µM

## CCN(Cc1ccccc1)c1ccc(/C=N/N=C(N)N)cc1
  AC35: 6.82 µM

## CC(=O)NC(c1ccc(Cl)cc1)c1ccc2cccnc2c1O (stereo not drawn)
  AC35: 2.14 µM

## CCCn1c(CN2CCN(C(=O)OCC)CC2)nc2cc(NC(=O)CC)ccc21
  AC35: 18.9 µM

## Cc1ccc(/C=N/NC(=O)c2ccc3ccccc3c2)s1
  AC35: 9.16 µM

## Oc1ccc2ccccc2c1N=Nc1nccs1
  AC35: 11.3 µM

## C/C(=N\Nc1ncnc2sc(C)c(C)c12)c1ccccn1
  AC35: 0.572 µM

## Cc1ccccc1-c1nc(CS(=O)(=O)CC(=O)NCc2ccccc2)c(C)o1
  AC35: 18.4 µM

## NC(=O)N=Nc1c2[nH]c3ccccc3nc-2c2ccccc12
  AC35: 16.6 µM

## Cc1ccc(CNC(=O)c2ccc3c(=O)c(O)c(-c4ccc(C)cc4)[nH]c3c2)cc1
  AC35: 1.9 µM

## CC(=O)c1cccc(Nc2c3c(nc4ccccc24)CCC3)c1
  AC35: 17.9 µM

## CC1(Cc2ccc(F)cc2)C(=O)Nc2c(Cl)ccc(Cl)c21 (stereo not drawn)
  AC35: 12 µM

## COc1cc2c(-c3ccccc3)c(C)oc2cc1/C=N/NC(N)=S
  AC35: 6.29 µM

## Nc1ccc2ccc3cccc[n+]3c2c1
  AC35: 21.5 µM

## O=C(Nc1cccc(F)c1)N1CCCCN2[C@@H](CO)[C@H](c3ccc(C#Cc4ccccc4)cc3)[C@@H]2C1
  AC35: 9.45 µM

## COc1cccc2c1C(=O)c1c(O)c3c(c(O)c1C2=O)CC(O)(C(C)=O)CC3OC1CC(N(C)C)C(O)C(C)O1 (stereo not drawn)
  AC35: 0.0849 µM

## CCSC(=O)N1c2ccc(OC)cc2C=CC1C#N (stereo not drawn)
  AC35: 7.54 µM

## C[C@H](CO)N1C[C@H](C)[C@@H](CN(C)Cc2ccc(Cl)c(Cl)c2)Oc2ccc(NC(=O)Nc3ccc(C(F)(F)F)cc3)cc2CC1=O
  AC35: 10.5 µM

## Cc1nc(/N=C(\N)NC(=O)NC2CCCCC2)nc2ccccc12
  AC35: 20.2 µM

## Cc1ccc(N(C)S(=O)(=O)c2ccc(-c3cnc(C4CC4)o3)cc2)cc1
  AC35: 8.88 µM

## O=C(c1cc(-c2ccncc2)nc2c(Cl)cccc12)N1CCN(c2ccccc2F)CC1
  AC35: 8.73 µM

## COc1cc(OC)cc(-c2cc3ccc(OC)cc3cn2)c1
  AC35: 4.68 µM

## C#Cc1cc(N2CCN(C(=O)c3ccoc3)CC2)n2nc(-c3cccc(Cl)c3)cc2n1
  AC35: 7.94 µM

## Cc1ccc(Nc2nc(-c3sc(C)nc3C)cs2)cc1
  AC35: 3.7 µM

## CC1(C(=O)NCc2ccco2)Cc2c(-c3ccc4c(c3)OCO4)ccnc2O1 (stereo not drawn)
  AC35: 9.85 µM

## Cc1cccc(N2CCN(S(=O)(=O)c3cc(-c4cc(C)no4)ccc3C)CC2C)c1 (stereo not drawn)
  AC35: 17.4 µM

## COc1ccc(NC(=O)C2(C)Cc3c(-c4cccc(NC(C)=O)c4)ccnc3O2)cc1 (stereo not drawn)
  AC35: 4.15 µM

## CCN1/C(=C\c2ccc3cc(C)ccc3[n+]2CC)Sc2cc(C)c(C)cc21
  AC35: 3.19 µM

## C[C@@H]1CN([C@H](C)CO)C(=O)c2cc(NS(=O)(=O)c3ccc(Cl)cc3)ccc2O[C@@H]1CN(C)Cc1ccc(-c2ccccc2)cc1
  AC35: 16.8 µM
